Positions of bridges follow the written chain, without caps; N, C: chain ends. Non-standard residues stand in square brackets, D forms with d. Residues, ends and D or L forms follow the SMILES beside them. PEG4 = NCCOCCOCCOCCOCCC(=O)O; AEEEA = NCCOCCOCCOCC(=O)O; PEG3 = NCCOCCOCCOCCC(=O)O
Biological target: T1, AM1R (Homo sapiens, UniProt O60895+Q16602)
T1 construct: EYFP; ECFP; expressed in transfected cells; host or cells: HEK-293 (transient co-transfection)
Assay: Activity determination in vitro: cAMP/CRE-luciferase reporter assay in HEK293 cells transiently co-transfected with CLR and RAMP2
Assay type: cell-based
Details: for Emax: HEK293, normalized to [G14]ADM(14-52); for EC50: HEK293 with CLR/RAMP2, CRE-luciferase, 3 h stimulation
Description: (1a) Activity Determination of Adrenomedullin Analogues in vitro
Cell Culture HEK-293 cells (human embryonic kidney cells) were cultured in Ham's F-12/DMEM (1/1; v/v) containing 15% FCS under humidified atmosphere at 37° C. and 5% CO2 in 75 cm^2 cell culture flasks.
Cells were cultured in 75 cm^2 flasks to 70-80% confluency. 45 μl Metafectene® Pro was diluted in 900 ρl Ham's F-12/DMEM (1/1; v/v) and incubated for 20 min at room temperature. 9 μg plasmid containing DNA of CLR fused to EYFP and 3 μg plasmid containing DNA of RAMP2 fused to ECFP were dissolved in 900 μl Ham's F-12/DMEM (1/1; v/v). The plasmid solution was mixed with the Metafectene® Pro solution and incubated for 25 min at room temperature. Medium was removed from the cells and replaced by 6 m1 Ham's F-12/DMEM (1/1; v/v) containing 15% FCS. After addition of transfection solution the cells were incubated for 3 h under humidified atmosphere at 37° C. and 5% CO2. For the second transfection 45 μl Metafectene® Pro was diluted in 900 μl Ham's F-12/DMEM (1/1; v/v) and incubated for 20 min at room temperature. 12 μg of pGL4.29[Luc2P/CRE/Hygro] plasmid containing DNA for the luciferase reporter gene luc2P (with CRE promotor region) were dissolved in 900 μl Ham's F-12/DMEM (1/1; v/v). The plasmid solution was mixed with the Metafectene® Pro solution and incubated for 25 min at room temperature. Medium was removed from the cells and replaced by 6 m1 Ham's F-12/DMEM (1/1; v/v) containing 15% FCS. After addition of transfection solution, the cells were incubated under humidified atmosphere at 37° C. and 5% CO2 over night.
For coating of 96-well-plates, 50 μl of a poly-D-lysine solution in DPBS (0.1 mg/ml) were pipetted in each well and incubated for 40 min. After removal of poly-D-lysine, each well was washed with 50 μl DPBS. Transiently transfected cells were detached from the cell culture flask by removal of the medium, 2-fold washing with 5 m1 DPBS and resuspending in 40 m1 Ham's F-12/DMEM (1/1; v/v) containing 15% FCS. 90,000 to 120,000 cells in 150 μl Ham's F-12/DMEM (1/1; v/v) containing 15% FCS were seeded per well and the plates were incubated under humidified atmosphere at 37° C. and 5% CO2 over night.
For each ligand, a serial dilution with eight different concentrations was prepared using Ham's F^12/DMEM (1/1; v/v). Before stimulation, the medium on the cells was replaced by 100 μl Ham's F^12/DMEM (1/1; v/v) and the plates were incubated for 1 h under humidified atmosphere at 37° C. and 5% CO2. For stimulation, the medium was removed and the cells were incubated for 3 h in 80 μl of ligand-solution under humidified atmosphere at 37° C. and 5% CO2. In addition 80 μl of a 5 μM forskolin solution in Ham's F-12/DMEM (1/1; v/v) was used as a positive control and 80 μl of Ham's F-12/DMEM (1/1; v/v) as a negative control. Each concentration and the controls were tested as triplicates.
After 3 h of stimulation, the solutions were removed and the cells were washed with 50 μl of Ham's F-12/DMEM (1/1; v/v) perwell. After 10 m incubation in 30 μl of Ham's F-12/DMEM (1/1; v/v) at room temperature, 30 μl of luciferase-solution (ONE-Glo™ Luciferase Assay System) was added and the luminescence was directly measured using an Infinite M200 (Tecan).
Data analysis of the luminescence measurement was carried out with GraphPad Prism 5. Therefore, the measured luminescence values of each plate were first corrected on the base of the respective average of forskolin stimulation. Afterwards they were normalized to [G14]ADM(14-52), which was used as standard peptide in every assay. After correction and normalization, data was analyzed using non-linear regression giving dose-response curves for each tested ligand.

T1 sequence (Q16602 23-461): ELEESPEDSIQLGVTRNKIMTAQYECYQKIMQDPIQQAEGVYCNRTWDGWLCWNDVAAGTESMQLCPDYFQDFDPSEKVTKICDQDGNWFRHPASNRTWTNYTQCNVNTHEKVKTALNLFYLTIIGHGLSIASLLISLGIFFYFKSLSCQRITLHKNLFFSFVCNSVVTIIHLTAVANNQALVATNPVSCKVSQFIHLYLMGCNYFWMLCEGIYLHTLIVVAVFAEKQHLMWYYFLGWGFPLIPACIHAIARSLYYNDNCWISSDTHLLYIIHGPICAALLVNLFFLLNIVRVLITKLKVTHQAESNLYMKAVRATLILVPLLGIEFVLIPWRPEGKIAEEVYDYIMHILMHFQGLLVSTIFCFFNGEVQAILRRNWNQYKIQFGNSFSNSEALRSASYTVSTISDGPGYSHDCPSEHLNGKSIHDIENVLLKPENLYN
T1 sequence (O60895 43-175): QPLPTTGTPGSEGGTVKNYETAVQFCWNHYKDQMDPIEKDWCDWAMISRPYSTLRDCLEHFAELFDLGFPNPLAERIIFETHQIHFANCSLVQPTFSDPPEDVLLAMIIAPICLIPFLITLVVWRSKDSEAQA

SMILES | Emax | EC50
CC[C@H](C)[C@H](NC(=O)[C@H](CCC(N)=O)NC(=O)[C@H](Cc1c[nH]cn1)NC(=O)[C@H](C)NC(=O)[C@H](CC(C)C)NC(=O)[C@H](CCCCN)NC(=O)[C@H](CCC(N)=O)NC(=O)[C@@H](NC(=O)[C@@H](NC(=O)[C@@H]1CSSC[C@H](NC(=O)CNC(=O)CN)C(=O)N[C@@H](CCCNC(=N)N)C(=O)N[C@@H](Cc2ccccc2)C(=O)NCC(=O)N[C@@H]([C@@H](C)O)C(=O)N1)[C@@H](C)O)C(C)C)C(=O)N[C@@H](Cc1ccc(O)cc1)C(=O)N[C@@H](CCC(N)=O)C(=O)N[C@@H](Cc1ccccc1)C(=O)N[C@H](C(=O)NCCOCCOCCOCC(=O)N[C@@H](CC(=O)O)C(=O)N[C@@H](CC(N)=O)C(=O)N[C@H](C(=O)N[C@@H](C)C(=O)N1CCC[C@H]1C(=O)N[C@@H](CCCNC(=N)N)C(=O)N[C@@H](CO)C(=O)N[C@@H](CCCCN)C(=O)N[C@H](C(=O)N[C@@H](CO)C(=O)N1CCC[C@H]1C(=O)N[C@@H](CCC(N)=O)C(=O)NCC(=O)N[C@@H](Cc1ccc(O)cc1)C(N)=O)[C@@H](C)CC)C(C)C)[C@@H](C)O [Example 6, ((4R,7S,13S,16S,19R)-19-(2-(2-aminoacetamido)acetamido)-13-benzyl-16-(3-guanidinopropyl)-7-((R)-1-hydroxyethyl)-6,9,12,15,18-pentaoxo-1,2-dithia-5,8,11,14,17-pentaazacycloicosane-4-carbonyl)-L-threonyl-ADM(23-34)-(2-(2-(2-(2-(k2-azaneyl)ethoxy)ethoxy)ethoxy)acetyl)-L-aspartyl-ADM(40-52)] (H-GGCRFGTCTVQKLAHQIYQFT[AEEEA]DNVAPRSKISPQGY-NH2; disulfide 3-8) | 95 ± 7% | 21 nM
CC[C@H](C)[C@H](NC(=O)[C@H](CCC(N)=O)NC(=O)[C@H](Cc1c[nH]cn1)NC(=O)[C@H](C)NC(=O)[C@H](CC(C)C)NC(=O)[C@H](CCCCN)NC(=O)[C@H](CCC(N)=O)NC(=O)[C@@H](NC(=O)[C@@H](NC(=O)[C@@H]1CSSC[C@H](NC(=O)CNC(=O)CN)C(=O)N[C@@H](CCCNC(=N)N)C(=O)N[C@@H](Cc2ccccc2)C(=O)NCC(=O)N[C@@H]([C@@H](C)O)C(=O)N1)[C@@H](C)O)C(C)C)C(=O)N[C@@H](Cc1ccc(O)cc1)C(=O)N[C@@H](CCC(N)=O)C(=O)N[C@@H](Cc1ccccc1)C(=O)N[C@H](C(=O)NCCOCCOCCOCCC(=O)N[C@@H](CC(=O)O)C(=O)N[C@@H](CC(N)=O)C(=O)N[C@H](C(=O)N[C@@H](C)C(=O)N1CCC[C@H]1C(=O)N[C@@H](CCCNC(=N)N)C(=O)N[C@@H](CO)C(=O)N[C@@H](CCCCN)C(=O)N[C@H](C(=O)N[C@@H](CO)C(=O)N1CCC[C@H]1C(=O)N[C@@H](CCC(N)=O)C(=O)NCC(=O)N[C@@H](Cc1ccc(O)cc1)C(N)=O)[C@@H](C)CC)C(C)C)[C@@H](C)O [Example 7, ((4R,7S,13S,16S,19R)-19-(2-(2-aminoacetamido)acetamido)-13-benzyl-16-(3-guanidinopropyl)-7-((R)-1-hydroxyethyl)-6,9,12,15,18-pentaoxo-1,2-dithia-5,8,11,14,17-pentaazacycloicosane-4-carbonyl)-L-threonyl-ADM(23-34)-(3-(2-(2-(2-(λ^2-azaneyl)ethoxy)ethoxy)ethoxy)propanoyl)-L-aspartyl-ADM(40-52)] (H-GGCRFGTCTVQKLAHQIYQFT[PEG3]DNVAPRSKISPQGY-NH2; disulfide 3-8) | 103 ± 4% | 13 nM
CC[C@H](C)[C@H](NC(=O)[C@H](CCC(N)=O)NC(=O)[C@H](Cc1c[nH]cn1)NC(=O)[C@H](C)NC(=O)[C@H](CC(C)C)NC(=O)[C@H](CCCCN)NC(=O)[C@H](CCC(N)=O)NC(=O)[C@@H](NC(=O)[C@@H](NC(=O)[C@@H]1CSSC[C@H](NC(=O)CNC(=O)CN)C(=O)N[C@@H](CCCNC(=N)N)C(=O)N[C@@H](Cc2ccccc2)C(=O)NCC(=O)N[C@@H]([C@@H](C)O)C(=O)N1)[C@@H](C)O)C(C)C)C(=O)N[C@@H](Cc1ccc(O)cc1)C(=O)N[C@@H](CCC(N)=O)C(=O)N[C@@H](Cc1ccccc1)C(=O)N[C@H](C(=O)NCCOCCOCCOCCOCCC(=O)N[C@@H](CC(N)=O)C(=O)N[C@H](C(=O)N[C@@H](C)C(=O)N1CCC[C@H]1C(=O)N[C@@H](CCCNC(=N)N)C(=O)N[C@@H](CO)C(=O)N[C@@H](CCCCN)C(=O)N[C@H](C(=O)N[C@@H](CO)C(=O)N1CCC[C@H]1C(=O)N[C@@H](CCC(N)=O)C(=O)NCC(=O)N[C@@H](Cc1ccc(O)cc1)C(N)=O)[C@@H](C)CC)C(C)C)[C@@H](C)O [Example 8, ((4R,7S,13S,16S,19R)-19-(2-(2-aminoacetamido)acetamido)-13-benzyl-16-(3-guanidinopropyl)-7-((R)-1-hydroxyethyl)-6,9,12,15,18-pentaoxo-1,2-dithia-5,8,11,14,17-pentaazacycloicosane-4-carbonyl)-L-threonyl-ADM(23-34)-(1-(λ^2-azaneyl)-3,6,9,12-tetraoxapentadecan-15-oyl)-L-asparagyl-ADM(41-52)] (H-GGCRFGTCTVQKLAHQIYQFT[PEG4]NVAPRSKISPQGY-NH2; disulfide 3-8) | 95 ± 3% | 16 nM
CC[C@H](C)[C@H](NC(=O)[C@H](CCC(N)=O)NC(=O)[C@H](Cc1c[nH]cn1)NC(=O)[C@H](C)NC(=O)[C@H](CC(C)C)NC(=O)[C@H](CCCCN)NC(=O)[C@H](CCC(N)=O)NC(=O)[C@@H](NC(=O)[C@@H](NC(=O)[C@@H]1CSSC[C@H](NC(=O)CNC(=O)CN)C(=O)N[C@@H](CCCNC(=N)N)C(=O)N[C@@H](Cc2ccccc2)C(=O)NCC(=O)N[C@@H]([C@@H](C)O)C(=O)N1)[C@@H](C)O)C(C)C)C(=O)N[C@@H](Cc1ccc(O)cc1)C(=O)N[C@@H](CCC(N)=O)C(=O)N[C@@H](Cc1ccccc1)C(=O)N[C@H](C(=O)N[C@@H](CC(=O)O)C(=O)NCCOCCOCCOCCC(=O)N[C@@H](CC(N)=O)C(=O)N[C@H](C(=O)N[C@@H](C)C(=O)N1CCC[C@H]1C(=O)N[C@@H](CCCNC(=N)N)C(=O)N[C@@H](CO)C(=O)N[C@@H](CCCCN)C(=O)N[C@H](C(=O)N[C@@H](CO)C(=O)N1CCC[C@H]1C(=O)N[C@@H](CCC(N)=O)C(=O)NCC(=O)N[C@@H](Cc1ccc(O)cc1)C(N)=O)[C@@H](C)CC)C(C)C)[C@@H](C)O [Example 9, ((4R,7S,13S,16S,19R)-19-(2-(2-aminoacetamido)acetamido)-13-benzyl-16-(3-guanidinopropyl)-7-((R)-1-hydroxyethyl)-6,9,12,15,18-pentaoxo-1,2-dithia-5,8,11,14,17-pentaazacycloicosane-4-carbonyl)-L-threonyl-ADM(23-35)-(3-(2-(2-(2-(λ^2-azaneyl)ethoxy)ethoxy)ethoxy)propanoyl)-L-asparagyl-ADM(41-52)] (H-GGCRFGTCTVQKLAHQIYQFTD[PEG3]NVAPRSKISPQGY-NH2; disulfide 3-8) | 87 ± 4% | 49 nM
